Measurements: patent US20050019267A1, “Macromolecular imaging agents for liver imaging” (priority 2001, published 2005)

How the values were obtained:
[1] = in vivo; cited from earlier work
[2] = system: LS174T intrahepatic micro-metastases; assay type: in vivo
[3] = 0.03 mmolGd/kg DAB-Am64-(1B4M-Gd)64 or 0.1 mmolGd/kg dimeglumine-DTPA-Gd, dynamic MRI 0-25 min

SMILES	excreted via the liver [1]	MRI signal intensity for blood vessels (portal and hepatic veins) [2, 3]	MRI signal intensity in the tumors [2, 3]	MRI signal intensity in the liver ([2]; 0.03 mmolGd/kg DAB-Am64-(1B4M-Gd)64 or 0.1 mmolGd/kg dimeglumine-DTPA-Gd, dynamic MRI 0-25 min, comparator worded relative to DAB agent)	liver-to-tumor image intensity ratio ([2]; 0.1 mmolGd/kg dimeglumine-DTPA-Gd versus 0.03 mmolGd/kg DAB-Am64-(1B4M-Gd)64, all time points)	tumors with more than 2 mm diameter detected by MRI (of 18) ([2]; same mice, n=5, 1-day interval, 0.03 mmolGd/kg DAB agent, 0.1 mmolGd/kg dimeglumine-DTPA-Gd)
CCOc1ccc(CC(CN(CCN(CC(=O)[O-])CC(=O)[O-])CC(=O)[O-])N(CC(=O)[O-])CC(=O)[O-])cc1.[Gd+3].[Na+].[Na+] (stereo not shown) [Eovist, [Gd(EOB-DTPA)(H2O)]^2−]	roughly 50%					
CNC[C@H](O)[C@@H](O)[C@H](O)[C@H](O)CO.CNC[C@H](O)[C@@H](O)[C@H](O)[C@H](O)CO.O=C([O-])CN(CCN(CC(=O)[O-])CC(=O)O)CCN(CC(=O)O)C(COCc1ccccc1)C(=O)[O-].[Gd+3] (stereo not shown) [MultiHance, [Gd(BOPTA)(H2O)]^2−]	2-4%					
CNC[C@H](O)[C@@H](O)[C@H](O)[C@H](O)CO.CNC[C@H](O)[C@@H](O)[C@H](O)[C@H](O)CO.O=C([O-])CN(CCN(CC(=O)[O-])CC(=O)O)CCN(CC(=O)[O-])CC(=O)O.[Gd+3] [dimeglumine-DTPA-Gd]		much lower	comparable	much lower	significantly less	18
